Our source for the GI50 and TGI values is PubChem BioAssay (NCI).

Common to all, as to experiment: growth of human tumour cells (NCI), 48 h
Assay [1] has as its system SK-MEL-5 melanoma.
The subject of assay [2] is OVCAR-8 ovarian.
Assay [3] concerns NCI/ADR-RES ovarian.
Assay [4] concerns SF-539 CNS.
Assay [5] concerns KM12 colon.
The subject of assay [6] is ACHN renal.
The subject of assay [7] is RPMI-8226 leukemia.
Assay [8] deals with CAKI-1 renal.

“And” between values parts separate entries of the source, which are not always exact repeats. Identical values can stand only once.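 In this assay, cells in 96-well plates receive the compound at five concentrations for 48 hours. Endpoints are linearly interpolated between the surrounding concentrations. Here, GI50 denotes the concentration required for 50% inhibition of growth. At the TGI there is no net growth.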

`COc1ccc(Cl)c(Nc2nc3ccccc3nc2NS(=O)(=O)c2cccc(NC(=O)C(C)(C)N)c2)c1`: the GI50 in assay [1] was 12.1 µM and > 10 µM; in assay [2], 14 µM and > 10 µM; in assay [3] it was 12.1 µM and > 10 µM; in assay [4] it was 7.35 µM and 4.42 µM; in assay [5] it was 12 µM and > 10 µM; in assay [6], 10.5 µM and > 10 µM. For the same molecule, the GI50 was 13.4 µM and > 10 µM in assay [7]; 6.49 µM in assay [8]. For the same molecule, the TGI in assay [1] is 24.6 µM and > 10 µM; in assay [2], 32.8 µM and > 10 µM; in assay [3], 32.3 µM and > 10 µM; in assay [4], 20.4 µM and > 10 µM; in assay [5] it was 30.9 µM and > 10 µM; in assay [6], 22.6 µM and > 10 µM. In addition, the TGI is 52.8 µM and > 10 µM in assay [7]; more than 10 µM in assay [8].

With `COc1cc(/C=C/C(=O)c2ccc(F)cc2)ccc1OCCCN1CCN(CC(=O)Nc2ccc(Cl)cc2C(=O)c2ccccc2Cl)CC1`, the GI50 in assay [1] is 3.42 µM; in assay [2], 11.7 µM; in assay [3], 13 µM; in assay [4], 10.2 µM; in assay [5], 5.58 µM; in assay [6], 12.5 µM. The values for the GI50 in assay [7] and in assay [8] were 2 µM and 11 µM, respectively. The TGI in assay [1] is 14.7 µM; in assay [2], 68.1 µM; in assay [3], more than 100 µM; in assay [4], 23.3 µM; in assay [5], 22.2 µM; in assay [6] it was 32.3 µM. Also, the TGI in assay [7] stood at 5.46 µM; in assay [8], 32.5 µM.

Consider `COC(=N)c1c(N)[n+]([O-])c2ccc(F)cc2[n+]1[O-]`, for which the GI50 in assay [1] is 52.6 µM; in assay [2], more than 100 µM; in assay [3], more than 100 µM; in assay [4] it was more than 100 µM; in assay [5], more than 100 µM; in assay [6], more than 100 µM. The GI50 in assay [7] was 81.2 µM; in assay [8] it was more than 100 µM. Further, the TGI in assay [1], in assay [2], in assay [3], in assay [4], in assay [5] and in assay [6] was more than 100 µM each time. Also, the TGI in assay [7] and in assay [8] was more than 100 µM throughout.

On to `CN1CCc2[nH]nc(-c3n[nH]c4c3CN(C)CC4)c2C1`, for which the TGI in assay [1], in assay [2], in assay [3], in assay [4], in assay [5] and in assay [6] was more than 100 µM in each case. Also, the TGI in assay [7] and in assay [8] was more than 100 µM in each case.

Consider `Nc1c(C(=O)c2cccc(-c3cccnc3)c2)cnn1-c1ccc(F)cc1F`, for which the GI50 in assay [1] was 1.8 µM; in assay [2], 8.13 µM; in assay [3], 1.2 µM; in assay [4], 8.32 µM; in assay [5], 1.21 µM; in assay [6] it was 6.92 µM. Moreover, the GI50 in assay [7] was 9.54 µM; in assay [8], 4.53 µM. In addition, the TGI is 13.8 µM in assay [1]; more than 25 µM in assay [2]; more than 21.9 µM in assay [3]; more than 25 µM in assay [4]; more than 25 µM in assay [5]; more than 25 µM in assay [6]. Besides, the TGI in assay [7] and in assay [8] was more than 25 µM each time.

With `COc1ccc(CC(=O)c2ccc(O)cc2O)cc1`, the GI50 was 48.3 µM in assay [1]; more than 100 µM in assay [2]; 58.8 µM in assay [3]; more than 100 µM in assay [4]; more than 100 µM in assay [5]; more than 100 µM in assay [6]. The GI50 was 34 µM in assay [7] and 59.6 µM in assay [8]. Further, the TGI in assay [1], in assay [2], in assay [3], in assay [4], in assay [5] and in assay [6] was more than 100 µM throughout. Moreover, the TGI in assay [7] and in assay [8] was more than 100 µM throughout.

Take `COc1ccc(N(/C=C/C(=O)C(F)(F)F)CC(=O)c2ccc(F)cc2)cc1`: the GI50 was 14.8 µM in assay [1]; 32.1 µM in assay [2]; 31.2 µM in assay [3]; 21.4 µM in assay [4]; 21.6 µM in assay [5]; 16.3 µM in assay [6]. Besides, the GI50 in assay [7] is 15.2 µM; in assay [8] it was 21.7 µM. Moreover, the TGI in assay [1] was 32 µM; in assay [2], more than 100 µM; in assay [3], 87.4 µM; in assay [4] it was 52 µM; in assay [5], 56 µM; in assay [6] it was 41.2 µM. For the same molecule, the TGI in assay [7] turned out to be 47.3 µM; in assay [8], 72.1 µM.

With `Cc1cn2c(/C=C3/C(=O)Nc4ccc(O)cc43)c(C)nc2s1`, the GI50 in assay [1] is 1.4 µM; in assay [2], 10.4 µM; in assay [3] it was 20.9 µM; in assay [4], 2.42 µM; in assay [5], 1.8 µM; in assay [6], 5.72 µM. For the same molecule, the GI50 is 1.93 µM in assay [7] and 3.28 µM in assay [8]. Further, the TGI in assay [1] is 7.74 µM; in assay [2] it was more than 51.7 µM; in assay [3], more than 70.6 µM; in assay [4], 9.16 µM; in assay [5], 24.3 µM; in assay [6], 62.8 µM. Moreover, the TGI in assay [7] is more than 20.6 µM; in assay [8] it was 19.8 µM.

Consider `N#CSCc1ccc(Cl)c(CSC#N)c1`, for which the GI50 in assay [1] was 0.33 µM; in assay [2], 0.298 µM; in assay [3] it was 1.9 µM; in assay [4], 0.117 µM; in assay [5], 0.545 µM; in assay [6], 0.0865 µM. Further, the values for the GI50 in assay [7] and in assay [8] were 0.186 µM and 0.169 µM, respectively. Moreover, the TGI in assay [1] is 12.2 µM; in assay [2], more than 73.6 µM; in assay [3] it was more than 60.9 µM; in assay [4] it was 16.6 µM; in assay [5] it was more than 41.9 µM; in assay [6] it was 22.6 µM. For the same molecule, the TGI in assay [7] was 28.1 µM; in assay [8] it was 21.7 µM.
